# How the values were obtained:
# [1] = target: MAO-A (Homo sapiens (Human), UniProt P21397); test: Monoamine oxidase assay (kynuramine to 4-hydroxyquinoline fluorescence), MAO-A; type: biochemical; conditions: for Ki: Table 1
# Protocol: (§1) Human recombinant monoamine oxidase proteins MAO-A and MAO-B were purchased from Sigma Aldrich. MOAs catalyze the oxidative deamination of 1°, 2° and 3° amines. In order to monitor MAO enzymatic activities and/or their inhibition rate by inhibitor(s) of interest, a fluorescent-based (inhibitor)-screening assay was set up. 3-(2-Aminophenyl)-3-oxopropamamine (kynuramine dihydrobromide, Sigma Aldrich), a non fluorescent compound was chosen as a substrate. Kynuramine is a non-specific substrate for both MAOs activities. While undergoing oxidative deamination by MAO activities, kynuramine is converted into 4-hydroxyquinoline (4-HQ), a resulting fluorescent product.
# (§2) The monoamine oxidase activity was estimated by measuring the conversion of kynuramine into 4-hydroxyquinoline. Assays were conducted in 96-well black plates with clear bottom (Corning) in a final volume of 100 μL. The assay buffer was 100 mM HEPES, pH 7.5. Each experiment was performed in triplicate within the same experiment.
# (§3) The oxidative deamination of the substrate was stopped by adding 50 μL (v/v) of NaOH 2N.
# (§4) The Ki of each inhibitor was measure at Vmax/2.
# [2] = target: MAO-B (Homo sapiens (Human), UniProt P27338); test: Monoamine oxidase assay (kynuramine to 4-hydroxyquinoline fluorescence), MAO-B; type: biochemical; conditions: Table 1
# Chain of MAO-B (P27338 whole entry): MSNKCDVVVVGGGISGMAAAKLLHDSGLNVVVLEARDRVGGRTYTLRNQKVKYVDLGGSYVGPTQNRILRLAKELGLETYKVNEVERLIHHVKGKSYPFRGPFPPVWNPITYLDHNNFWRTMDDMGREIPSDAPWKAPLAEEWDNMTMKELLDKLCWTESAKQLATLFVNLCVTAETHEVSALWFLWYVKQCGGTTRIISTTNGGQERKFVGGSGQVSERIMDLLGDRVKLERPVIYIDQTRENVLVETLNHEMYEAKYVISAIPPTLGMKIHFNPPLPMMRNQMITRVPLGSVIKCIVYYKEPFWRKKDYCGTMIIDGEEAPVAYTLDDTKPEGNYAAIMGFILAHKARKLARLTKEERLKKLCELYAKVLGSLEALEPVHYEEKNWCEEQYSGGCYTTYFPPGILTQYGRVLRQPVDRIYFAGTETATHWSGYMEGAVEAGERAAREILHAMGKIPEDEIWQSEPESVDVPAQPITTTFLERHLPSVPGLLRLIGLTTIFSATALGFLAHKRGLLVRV
# Protocol: as §1, §2, §3, §4
# [3] = target: Human recombinant LSD1 protein (Homo sapiens (Human), UniProt O60341); test: LSD1 demethylase inhibition assay (Amplex Red peroxide/peroxidase-coupled, di-methylated H3-K4 peptide); conditions: for ability to inhibit LSD1: preliminary assays, result in words; for LSD1 percent at fixed concentration: at 20 μM
# Protocol: The demethylase activity was estimated, under aerobic conditions, by measuring the release of H2O2 produced during the catalytic process, using the Amplex® Red peroxide/peroxidase-coupled assay kit (Invitrogen).
# Tranylcypromine (Biomol International) was used as a control for inhibition. Within the experiment, each concentration of inhibitor was tested in triplicate. […] The enzymatic reactions were set up in a 50 mM sodium phosphate, pH 7.4 buffer. […] A 1 μM H2O2 solution was used as a control of the kit efficiency. The conversion of the Amplex® Red reagent to resorufin due to the presence of H2O2 in the assay, was monitored by fluorescence (excitation at 540 nm, emission at 590 nm) using a microplate reader (Infinite 200, Tecan). Arbitrary units were used to measure level of H2O2 produced in the absence and/or in the presence of inhibitor.
# The Ki of each inhibitor was estimated at half of the maximum activity.
# Chain of MAO-A (P21397 whole entry): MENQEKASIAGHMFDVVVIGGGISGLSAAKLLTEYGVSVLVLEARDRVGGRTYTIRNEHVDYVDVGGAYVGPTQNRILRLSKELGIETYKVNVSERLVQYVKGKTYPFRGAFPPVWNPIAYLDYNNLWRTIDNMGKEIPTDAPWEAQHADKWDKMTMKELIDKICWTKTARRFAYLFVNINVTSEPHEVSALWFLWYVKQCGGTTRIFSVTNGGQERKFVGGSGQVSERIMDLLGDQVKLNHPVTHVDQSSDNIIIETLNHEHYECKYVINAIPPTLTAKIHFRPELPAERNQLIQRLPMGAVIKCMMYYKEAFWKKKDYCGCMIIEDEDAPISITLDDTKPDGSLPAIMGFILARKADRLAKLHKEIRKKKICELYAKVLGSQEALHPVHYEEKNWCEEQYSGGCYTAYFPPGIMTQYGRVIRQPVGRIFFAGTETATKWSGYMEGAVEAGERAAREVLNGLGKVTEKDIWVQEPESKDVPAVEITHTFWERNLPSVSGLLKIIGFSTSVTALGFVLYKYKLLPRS
Structure (SMILES),Ki [1] [µM],Ki [2] [µM],Ki [3] [µM],ability to inhibit LSD1 [3],IC50 value for MAO-A [1],LSD1 percent at fixed concentration [3] [% at 20]
"CC(C)(C)NC(=O)CN(Cc1ccccc1)[C@H]1C[C@@H]1c1ccccc1 (relative stereo) [Example 21, 2-(benzyl((trans)-2-phenylcyclopropyl)amino)-N-tert-butylacetamide]",–,–,> 100,did not inhibit LSD1,–,–
"CN(C)CCNC(=O)CN[C@H]1C[C@@H]1c1ccccc1 (relative stereo) [Example 13, N-(2-(dimethylamino)ethyl)-2-((trans)-2-phenylcyclopropylamino)acetamide]",> 40,> 40,–,–,–,–
"CN(CC(=O)NC1CC1)[C@H]1C[C@@H]1c1ccccc1 (relative stereo) [Example 19, N-cyclopropyl-2-{methyl[(trans)-2-phenylcyclopropyl]amino}acetamide]",74,> 100,–,–,–,34
"CN(CC(N)=O)[C@H]1C[C@@H]1c1ccccc1 (relative stereo) [Example 20, 2-{methyl[(trans)-2-phenylcyclopropyl]amino}acetamide]",> 100,> 100,–,–,–,40

# The remaining lines, values ahead:
Ki [1] [µM],Ki [2] [µM],Ki [3] [µM],ability to inhibit LSD1 [3],IC50 value for MAO-A [1],LSD1 percent at fixed concentration [3] [% at 20],Structure (SMILES)
> 50,> 50,> 50,did not inhibit LSD1,–,–,"O=C(CN[C@H]1C[C@@H]1c1ccccc1)Nc1ccc(F)cc1 (relative stereo) [Example 8, N-(4-fluorophenyl)-2-{[(trans)-2-phenylcyclopropyl]amino}acetamide]"
11,–,–,–,low micromolar range,–,"CN1CCN(C(=O)CN[C@H]2C[C@@H]2c2ccc(OCc3ccccc3)cc2)CC1 (relative stereo) [Example 26, 2-((trans)-2-(4-(benzyloxy)phenyl)cyclopropylamino)-1-(4-methylpiperazin-1-yl)ethanone]"
